Reference: PMC12187842, “A novel molecule targeting neutrophil-mediated B-1a cell trogocytosis attenuates sepsis-induced acute lung injury” (Frontiers in Immunology, 2025)

Experiments:
Type in all cases: in vivo, mouse
B-1a cells = experiment: B-1a cell numbers in pleural and peritoneal cavities of CLP mice by flow cytometry
Excerpt: (§1) Mice were anesthetized with 2% isoflurane in oxygen, and sepsis was induced via cecal ligation and puncture (CLP) ([26]). A 1-cm midline abdominal incision was made to expose the cecum, which was ligated 1-cm proximal to its end using a 4-0 silk suture. The cecum then was perforated with a single through-and-through puncture using a 22-gauge needle, positioned midway between the ligation and the tip of the cecum. A small amount of fecal material was gently extruded from the perforation sites to confirm the patency of the punctures, and the cecum was subsequently returned to the peritoneal cavity. Following abdominal closure, resuscitation was provided via subcutaneous (s.c.) injection of 500 µL normal saline. Postoperative analgesia was administered with a single dose of 0.1 mg/kg buprenorphine. […]
B-1a cell and neutrophil populations were analyzed by flow cytometry ([9], [11], [28]). […] After that, B-1a cells (CD45^+CD19^+B220^lo/-CD5^+CD23^-) ([6], [28]), and neutrophils (CD45^+Ly6G^+) were detected by flow cytometry. Fc block (Cat. No. 156604, BioLegend) was used to prevent nonspecific antibody binding and the cell viability was determined using a Zombie Aqua Fixable Viability Kit (BioLegend). […]

[1] = system: CLP-induced sepsis in C57BL/6 mice; experiment: Lung wet-to-dry weight ratio in CLP mice; conditions: C11 10 mg/kg i.p. once after CLP (Figure 5 legend: 10 μg/kg); 20 h; n = 5-7/group; vs. CLP vehicle
Excerpt: as §1, with “buprenorphine. To evaluate the effects of the therapeutic peptide (named Compound 11 or C11) (synthesized by GenScript USA Inc., Piscataway, NJ) on sepsis, C57BL/6 mice were assigned to three experimental groups: the Sham group, the CLP group treated with vehicle, and the CLP group treated with C11 (10 mg/kg). C11 was dissolved in DMSO (10 mg/mL) and diluted with saline to a total volume of 500 µL.” for “buprenorphine.”
Lung wet and dry weights were measured as previously described ([30]). […] The wet-to-dry weight ratio was calculated as an indicator of pulmonary edema.

[2] = system: CLP-induced sepsis in C57BL/6 mice; experiment: Lung histopathology (H&E) in CLP mice; conditions: C11 10 mg/kg i.p. once after CLP (Figure 5 legend: 10 μg/kg); 20 h; n = 5-7/group; vs. CLP vehicle
Excerpt: as §1, with “buprenorphine. To evaluate the effects of the therapeutic peptide (named Compound 11 or C11) (synthesized by GenScript USA Inc., Piscataway, NJ) on sepsis, C57BL/6 mice were assigned to three experimental groups: the Sham group, the CLP group treated with vehicle, and the CLP group treated with C11 (10 mg/kg). C11 was dissolved in DMSO (10 mg/mL) and diluted with saline to a total volume of 500 µL.” for “buprenorphine.”
Lung tissues were fixed in 10% formalin, embedded in paraffin, sectioned into 5-μm-thick slices, and stained with hematoxylin and eosin (H&E). […] Lung fields at ×400 magnification were scored and averaged for analyses.

[3] = system: CLP-induced sepsis in C57BL/6 mice; experiment: Lung tissue mRNA expression in CLP mice by real-time qPCR; conditions: C11 10 mg/kg i.p. once after CLP (Figure 5 legend: 10 μg/kg); 20 h; normalized to β-actin; n = 5-7/group; vs. CLP vehicle
Excerpt: (§2) Mice were anesthetized with 2% isoflurane in oxygen, and sepsis was induced via cecal ligation and puncture (CLP) ([26]). A 1-cm midline abdominal incision was made to expose the cecum, which was ligated 1-cm proximal to its end using a 4-0 silk suture. The cecum then was perforated with a single through-and-through puncture using a 22-gauge needle, positioned midway between the ligation and the tip of the cecum. A small amount of fecal material was gently extruded from the perforation sites to confirm the patency of the punctures, and the cecum was subsequently returned to the peritoneal cavity. Following abdominal closure, resuscitation was provided via subcutaneous (s.c.) injection of 500 µL normal saline. Postoperative analgesia was administered with a single dose of 0.1 mg/kg buprenorphine. To evaluate the effects of the therapeutic peptide (named Compound 11 or C11) (synthesized by GenScript USA Inc., Piscataway, NJ) on sepsis, C57BL/6 mice were assigned to three experimental groups: the Sham group, the CLP group treated with vehicle, and the CLP group treated with C11 (10 mg/kg). C11 was dissolved in DMSO (10 mg/mL) and diluted with saline to a total volume of 500 µL. The peptide was administered once, immediately after surgery, via intraperitoneal (i.p.) injection. Mice in the vehicle group received an equivalent volume of DMSO and normal saline via i.p. injection. After 20 h, lungs were harvested, and blood was collected via cardiac puncture. For the survival study, animals received a single subcutaneous (s.c.) injection of 0.5 mg/kg imipenem at the end of the CLP.
Total RNA was extracted from lungs using a TRIzol reagent (Thermo Fisher Scientific) according to the manufacturer’s instructions. cDNA was synthesized using M-MLV reverse transcriptase (Thermo Fisher Scientific). Quantitative real-time PCR (qPCR) was performed using SYBR Green PCR Master Mix (Thermo Fisher Scientific) with a StepOnePlus Real-Time PCR thermocycler (Thermo Fisher Scientific). Mouse β-actin served as an endogenous control to normalize mRNA levels using the comparative Ct method. […]

[4] = system: CLP-induced sepsis in C57BL/6 mice; experiment: Plasma organ injury markers in CLP mice by colorimetric enzymatic assays; conditions: C11 10 mg/kg i.p. once after CLP (Figure 5 legend: 10 μg/kg); 20 h; n = 5-7/group; vs. CLP vehicle
Excerpt: as §2
Blood was collected by heart puncture. Plasma levels of organ injury markers (ALT: alanine transaminase, AST: aspartate transferase, and LDH: lactate dehydrogenase) were assessed by using colorimetric enzymatic assays (MedTest Dx, Canton, MI) according to the manufacturer’s protocol. Plasma levels of pro-inflammatory cytokines (TNFα: tumor necrosis factor α, and IL-6: interleukin-6) were measured by using mouse-specific ELISA kits (BD Biosciences).

**Q.** 126-ELKNRTVSWFS-136 [Compound C11] was tested. Which “B-1a cell numbers in the pleural and peritoneal cavities” value (B-1a cells; C11 10 mg/kg i.p. once immediately after CLP, 20 h after surgery, flow cytometry, n = 5-6/group, p < 0.05 vs. C11 (-)) did it give?
**A.** Its value is “effectively preserved”.

**Q.** What about the “restoration of B-1a cell numbers in sepsis” value (B-1a cells; discussion, blocking of Siglec-G/CD47 interaction by C11 in CLP mice) of the same substance?
**A.** The value was “did not fully restore B-1a cell numbers”.

**Q.** What about the “sepsis-induced pulmonary edema (lung wet-to-dry ratio)” value [1] of the same substance?
**A.** The value was “effectively reduced”.

**Q.** And the “sepsis-induced lung injury (H&E histology, lung injury score 0 to 1)” value [2]?
**A.** The value was “significantly mitigated”.

**Q.** And the “lung tissue CXCL1 (KC) mRNA” value [3]?
**A.** Its value is “significantly reduced”.

**Q.** And the “lung tissue CXCL2 (MIP-2) mRNA” value [3]?
**A.** The value was “significantly reduced”.

**Q.** And the “lung tissue IL-6 mRNA” value [3]?
**A.** The value was “significantly reduced”.

**Q.** And the “blood ALT” value [4]?
**A.** Its value is “markedly reduced”.

**Q.** And the “blood AST” value [4]?
**A.** Its value is “markedly reduced”.

**Q.** And the “blood LDH” value [4]?
**A.** The value was “markedly reduced”.
